Reference: PubChem BioAssay AID328 (DTP/NCI, 2004)
Where “and” joins values, the source holds several entries; their conditions need not be identical. Equal values may be shown once. Inconclusive results and toxic doses are left out.

Tested on: BDF1 mice, P388 leukemia ip, median survival T/C
Experiment: NCI In Vivo Anticancer Drug Screen. Data for tumor model P388 Leukemia (intraperitoneal) in B6D2F1 (BDF1) mice
Conditions: endpoint: median survival time, higher = longer survival
How it was run: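 T/C = treated-group survival ÷ vehicle-control survival; tumour transplanted into mice before dosing.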

[1] = dose: 100.0 mg/kg/injection, schedule: Q04DX003 (ip), vehicle: Klucel (hydroxypropylcellulose) (HPC)
[2] = dose: 200.0 mg/kg/injection, schedule: Q04DX003 (ip), vehicle: Klucel (hydroxypropylcellulose) (HPC)
[3] = dose: 400.0 mg/kg/injection, schedule: Q04DX003 (ip), vehicle: Klucel (hydroxypropylcellulose) (HPC)
[4] = dose: 100.0 mg/kg/injection, schedule: Q01DX009 (ip), vehicle: saline with Tween-80
[5] = dose: 100.0 mg/kg/injection, schedule: Q04DX003 (ip), vehicle: saline with Tween-80
[6] = dose: 200.0 mg/kg/injection, schedule: Q01DX009 (ip), vehicle: saline with Tween-80
[7] = dose: 200.0 mg/kg/injection, schedule: Q04DX003 (ip), vehicle: saline with Tween-80
[8] = dose: 400.0 mg/kg/injection, schedule: Q01DX009 (ip), vehicle: saline with Tween-80
[9] = dose: 400.0 mg/kg/injection, schedule: Q04DX003 (ip), vehicle: saline with Tween-80
[10] = dose: 50.0 mg/kg/injection, schedule: Q04DX003 (ip), vehicle: saline with Tween-80
[11] = dose: 100.0 mg/kg/injection, schedule: Q01DX001 (ip), vehicle: saline sonified
[12] = dose: 200.0 mg/kg/injection, schedule: Q01DX001 (ip), vehicle: saline sonified
[13] = dose: 50.0 mg/kg/injection, schedule: Q01DX009 (ip), vehicle: saline with Tween-80
[14] = dose: 25.0 mg/kg/injection, schedule: Q01DX009 (ip), vehicle: saline
[15] = dose: 50.0 mg/kg/injection, schedule: Q01DX009 (ip), vehicle: saline
[16] = dose: 100.0 mg/kg/injection, schedule: Q04DX003 (ip), vehicle: saline
[17] = dose: 200.0 mg/kg/injection, schedule: Q04DX003 (ip), vehicle: saline
[18] = dose: 50.0 mg/kg/injection, schedule: Q04DX003 (ip), vehicle: saline
[19] = dose: 100.0 mg/kg/injection, schedule: Q01DX009 (ip), vehicle: saline
[20] = dose: 400.0 mg/kg/injection, schedule: Q04DX003 (ip), vehicle: saline

## c1ccc(C2=C(c3ccccc3)c3cccc4cccc2c34)cc1
dose: 100.0 mg/kg/injection, schedule: Q01DX001 (ip), vehicle: Klucel (hydroxypropylcellulose) (HPC)
  T/C: 95 % of control and 110 % of control
[1]
  T/C: 115 % of control
dose: 200.0 mg/kg/injection, schedule: Q01DX001 (ip), vehicle: Klucel (hydroxypropylcellulose) (HPC)
  T/C: 105 % of control
[2]
  T/C: 120 % of control
dose: 400.0 mg/kg/injection, schedule: Q01DX001 (ip), vehicle: Klucel (hydroxypropylcellulose) (HPC)
  T/C: 95 % of control and 105 % of control
[3]
  T/C: 110 % of control

## CC(=O)n1cc(C2CC(=O)OC3=C2C(=O)CCC3)c2ccccc21 (stereo not drawn)
[4]
  T/C: 94 % of control
[5]
  T/C: 98 % of control
[6]
  T/C: 100 % of control
[7]
  T/C: 93 % of control
[8]
  T/C: 102 % of control
[9]
  T/C: 93 % of control

## CC(=O)NC(O)C(Cl)(Cl)Cl (stereo not drawn)
dose: 100.0 mg/kg/injection, schedule: Q04DX003 (ip), vehicle: saline sonified
  T/C: 91 % of control
dose: 200.0 mg/kg/injection, schedule: Q04DX003 (ip), vehicle: saline sonified
  T/C: 108 % of control
dose: 400.0 mg/kg/injection, schedule: Q04DX003 (ip), vehicle: saline sonified
  T/C: 100 % of control

## COC(C(OC)N1CCOCC1)N1CCOCC1 (stereo not drawn)
[10]
  T/C: 104 % of control
[4]
  T/C: 91 % of control
[5]
  T/C: 95 % of control
[6]
  T/C: 95 % of control
[7]
  T/C: 100 % of control
[8]
  T/C: 95 % of control
[9]
  T/C: 100 % of control

## Clc1ncn[nH]1
[11]
  T/C: 120 % of control
[12]
  T/C: 112 % of control
dose: 400.0 mg/kg/injection, schedule: Q01DX001 (ip), vehicle: saline sonified
  T/C: 120 % of control

## CCCN(CCC)CC(O)c1cc2c(Cl)cc(Cl)cc2c2cc(C(F)(F)F)ccc12 (stereo not drawn)
[13]
  T/C: 100 % of control
[4]
  T/C: 100 % of control
[6]
  T/C: 106 % of control

## O=C(Oc1ccc([N+](=O)[O-])cc1)c1ccc(CBr)cc1
[14]
  T/C: 95 % of control
[15]
  T/C: 100 % of control
[16]
  T/C: 90 % of control
[17]
  T/C: 86 % of control

## CC(=O)OCC12CCC(C)=CC1O[C@H]1[C@@H](OC(C)=O)[C@H](OC(C)=O)[C@]2(C)[C@@]12CO2 (stereo partly drawn)
dose: 2.5 mg/kg/injection, schedule: Q04DX002 (ip), vehicle: saline + alcohol
  T/C: 96 % of control

## CCOC(=O)N(C)c1ccc(Cl)cc1C(N)=O
[1]
  T/C: 100 % of control
[2]
  T/C: 94 % of control
[3]
  T/C: 115 % of control

## C[S+](C)Cc1ccc(C(=O)Oc2ccc([N+](=O)[O-])cc2)cc1
[15]
  T/C: 100 % of control
[18]
  T/C: 100 % of control
[19]
  T/C: 105 % of control
[16]
  T/C: 109 % of control
[17]
  T/C: 100 % of control

## CC(C)SC=O
[14]
  T/C: 100 % of control
[15]
  T/C: 101 % of control
[18]
  T/C: 101 % of control
[19]
  T/C: 92 % of control and 97 % of control
[16]
  T/C: 109 % of control
dose: 200.0 mg/kg/injection, schedule: Q01DX009 (ip), vehicle: saline
  T/C: 86 % of control
[17]
  T/C: 98 % of control
dose: 400.0 mg/kg/injection, schedule: Q01DX009 (ip), vehicle: saline
  T/C: 97 % of control and 118 % of control
[20]
  T/C: 103 % of control

## Nc1ccc2cc3ccc(N)cc3nc2c1
[14]
  T/C: 86 % of control

## N=C(N)N.O=S(=O)(O)[O][Al]1[O]S(=O)(=O)[O]1
[14]
  T/C: 87 % of control
[15]
  T/C: 100 % of control
[19]
  T/C: 95 % of control

## COc1cccc(/C(C)=N\Nc2ccc([N+](=O)[O-])cc2[N+](=O)[O-])c1OC
[13]
  T/C: 94 % of control
[10]
  T/C: 100 % of control
[4]
  T/C: 100 % of control
[5]
  T/C: 102 % of control
[6]
  T/C: 91 % of control
[7]
  T/C: 102 % of control
[8]
  T/C: 94 % of control
[9]
  T/C: 97 % of control

## CCSC(=O)CC
[13]
  T/C: 95 % of control
[4]
  T/C: 105 % of control
[5]
  T/C: 104 % of control
[6]
  T/C: 100 % of control
[7]
  T/C: 104 % of control
[9]
  T/C: 100 % of control

## O=C1C=CC(=Nc2ccc3c(c2)C(Br)c2ccccc2-3)O1 (stereo not drawn)
dose: 2.25 mg/kg/injection, schedule: Q01DX009 (ip), vehicle: saline
  T/C: 100 % of control
dose: 4.5 mg/kg/injection, schedule: Q01DX009 (ip), vehicle: saline
  T/C: 100 % of control
dose: 9.0 mg/kg/injection, schedule: Q01DX009 (ip), vehicle: saline
  T/C: 100 % of control
dose: 13.0 mg/kg/injection, schedule: Q01DX009 (ip), vehicle: saline
  T/C: 105 % of control
dose: 20.0 mg/kg/injection, schedule: Q01DX009 (ip), vehicle: saline
  T/C: 100 % of control
dose: 30.0 mg/kg/injection, schedule: Q01DX009 (ip), vehicle: saline
  T/C: 120 % of control
dose: 95.0 mg/kg/injection, schedule: Q04DX003 (ip), vehicle: saline
  T/C: 109 % of control
dose: 145.0 mg/kg/injection, schedule: Q04DX003 (ip), vehicle: saline
  T/C: 118 % of control

## O=C(C(=O)c1ccc(Br)cc1)c1ccc(Br)cc1
[4]
  T/C: 96 % of control
[6]
  T/C: 98 % of control
[8]
  T/C: 98 % of control

## CCOC(=O)C1Cc2c([nH]c(=O)[nH]c2=O)OC1c1cccc(Cl)c1 (stereo not drawn)
dose: 3.12 mg/kg/injection, schedule: Q01DX009 (ip), vehicle: saline with Tween-80
  T/C: 98 % of control
dose: 6.25 mg/kg/injection, schedule: Q01DX009 (ip), vehicle: saline with Tween-80
  T/C: 96 % of control and 102 % of control
dose: 12.5 mg/kg/injection, schedule: Q01DX009 (ip), vehicle: saline with Tween-80
  T/C: 93 % of control
dose: 25.0 mg/kg/injection, schedule: Q01DX009 (ip), vehicle: saline with Tween-80
  T/C: 99 % of control and 107 % of control

## N#CC1C(=O)NC(=O)C(C#N)C12CCCCC2 (stereo not drawn)
dose: 50.0 mg/kg/injection, schedule: Q01DX005 (ip), vehicle: saline with Tween-80
  T/C: 100 % of control
[10]
  T/C: 110 % of control
dose: 100.0 mg/kg/injection, schedule: Q01DX005 (ip), vehicle: saline with Tween-80
  T/C: 100 % of control
[5]
  T/C: 120 % of control
dose: 200.0 mg/kg/injection, schedule: Q01DX005 (ip), vehicle: saline with Tween-80
  T/C: 109 % of control
[7]
  T/C: 105 % of control

## CCOC(=O)c1c(-c2ccccc2)cn2c1OC(C)CC2(C)C (stereo not drawn)
dose: 50.0 mg/kg/injection, schedule: Q01DX001 (ip), vehicle: saline sonified
  T/C: 100 % of control
[11]
  T/C: 100 % of control
[12]
  T/C: 95 % of control

## CS(=O)(=O)OCC(=O)NCCNC(=O)COS(C)(=O)=O
[7]
  T/C: 152 % of control
dose: 264.0 mg/kg/injection, schedule: Q04DX003 (ip), vehicle: saline with Tween-80
  T/C: 160 % of control
dose: 264.0 mg/kg/injection, schedule: Q04DX003 (ip), vehicle: saline
  T/C: 165 % of control
[9]
  T/C: 169 % of control and 180 % of control
[20]
  T/C: 152 % of control
dose: 600.0 mg/kg/injection, schedule: Q04DX003 (ip), vehicle: saline
  T/C: 182 % of control

## CC(C)C(=O)c1ccc([N+](=O)[O-])o1
[13]
  T/C: 115 % of control
[4]
  T/C: 111 % of control
[5]
  T/C: 107 % of control
[6]
  T/C: 109 % of control
[7]
  T/C: 116 % of control
[8]
  T/C: 107 % of control
[9]
  T/C: 109 % of control

## CC1=C(C)CC2C(=O)C(C(O)CC(C)C)=CC(=O)C2C1 (stereo not drawn)
[5]
  T/C: 100 % of control
[7]
  T/C: 113 % of control
[9]
  T/C: 93 % of control
